Experimental data taken from patent US7166297B2, “Lipid-based drug delivery systems against parasitic infections” (LiPlasome Pharma A/S, priority 2000, dated 2007).

Experiments:
[1] = system: human red blood cells (RBC); assay: Hemolysis assay; conditions: low concentrations, 37° C., 20 hours
Experimental: Briefly, each sample was serially diluted with phosphate buffered saline (PBS), and 0.5 ml of each dilute suspension was mixed with 0.5 ml washed human red blood cells (RBC) [4% in PBS (v/v)]. Sample and standard were placed in a 37° C. incubator and agitated for 20 hours. Tubes were centrifuged at low speed (2000×G) for 10 minutes and 200 μl of the supernatant was quantitated by absorbance at 550 nm. 100 percent hemolysis was defined as the maximum amount of hemolysis obtained from the detergent Triton X-100.
The lipids were hydrated in phosphate buffered saline (PBS). 1-O-octadecyl-2-O-methyl-sn-glycero-3-phosphocholine (ET-18-OCH3) in PBS was included in the assay as a reference.
Briefly, each sample was serially diluted with PBS, and 0.5 ml of each dilute suspension of 1-O-DPPC liposomes were mixed with 0.5 ml washed human red blood cells (RBC) [4% in PBS (v/v)]. For controls, 0.5 ml of the red blood cell suspension was mixed with either 0.5 ml buffer solution (negative hemolysis control) or 0.5 ml water (positive hemolysis control). Samples and standard were placed in a 37° C. incubator and agitated for 20 hours. Tubes were centrifuged at low speed (2000×G) for 10 minutes to form RBCs pellets. 200 μl of the supernatant was quantified by absorbance at 550 nm using a Perkin-Elmer 320 scanning spectrophotometer. […]

[2] = molecular target: T1, Snake venom PLA2 (Agkistrodon piscivorus piscivorus) (Agkistrodon piscivorus piscivorus, UniProt P51972); assay: Model system: PLA2-controlled calcein release across D-O-SPC target membrane with DPPC carrier liposomes; type: biochemical
T1 construct: Purified snake venom PLA2 (Agkistrodon piscivorus piscivorus) was a generous gift from dr; R. L. Biltonen; tissue gift from dr; host or cells: snake venom of Agkistrodon piscivorus piscivorus
T1 sequence (P51972 1-123): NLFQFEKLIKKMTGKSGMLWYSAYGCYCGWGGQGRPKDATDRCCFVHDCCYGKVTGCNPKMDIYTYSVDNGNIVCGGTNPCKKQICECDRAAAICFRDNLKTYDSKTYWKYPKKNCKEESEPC
Experimental: The temperature is 37° C. […] The percentage of calcein released is determined as % Release=100 (IF(t)−IB)/(IT−IB), where IF(t) is the measured fluorescence at time t after addition of the enzyme, IB is the background fluorescence, and IT is the total fluorescence measured after addition of Triton X-100 which leads to complete release of calcein by breaking up the target liposomes. […] The concentration of the target and carrier liposomes are 25 μM, and PLA2 is added in a 25 nM concentration in a HEPES buffer with pH=7.5.
The experimental model system consists of a negatively charged liposome carrier and a model target membrane. The carrier is a 100 nm unilamellar liposome made of dipalmitoyl phosphatidylcholine lipids (DPPC) with a small amount (2.5 mol %) of negatively charged lipid of the type dipaimitoyl phosphatidylethanolamine (DPPE)-PEG2000. The target membrane is another liposome made of 1,2-O-dioctadecyl-sn-glycero-phosphatidylcholine (D-O-SPC) which is a phospholipid where the acyl linkages of the stearoyl chains are ether bonds. In contrast to DPPC, D-O-SPC is inert towards PLA2-catalysed hydrolysis thereby mimicking the stability of an intact target cell membrane toward degradation by its own enzymes. […] The permeation of calcein across the D-O-SPC target membrane is subsequently monitored by the increase in fluorescence. […]

[3] = Calcein release across target membrane on adding lyso-phospholipid and fatty acid in the absence of PLA2; conditions: 25 μM target membranes, pH=7.5, 39° C.
Experimental: FIG. 13. […] The concentration of the target membranes is 25 μM in a HEPES buffer with pH=7.5 at a temperature of 39° C.
The experimental model system consists of a negatively charged liposome carrier and a model target membrane. The carrier is a 100 nm unilamellar liposome made of dipalmitoyl phosphatidylcholine lipids (DPPC) with a small amount (2.5 mol %) of negatively charged lipid of the type dipaimitoyl phosphatidylethanolamine (DPPE)-PEG2000. The target membrane is another liposome made of 1,2-O-dioctadecyl-sn-glycero-phosphatidylcholine (D-O-SPC) which is a phospholipid where the acyl linkages of the stearoyl chains are ether bonds. In contrast to DPPC, D-O-SPC is inert towards PLA2-catalysed hydrolysis thereby mimicking the stability of an intact target cell membrane toward degradation by its own enzymes. This experimental assay, which permits simultaneous as well as separate investigation of the effect of destabilisers at the carrier liposomes and the effect of enhancers at the target membrane, involves entrapment of a water-soluble fluorescent calcein model drug in a self-quenching concentration, in the interior of the non-hydrolysable target liposome, rather than in the carrier liposome. […] The permeation of calcein across the D-O-SPC target membrane is subsequently monitored by the increase in fluorescence. […]

[4] = molecular target: T2, phospholipase A2 (A. piscivorus piscivorus) (Agkistrodon piscivorus piscivorus, UniProt P51972)
T2 sequence (P51972 1-123): T1 sequence (P51972 1-123)
Experimental: HPLC chromatograms illustrating the effect of phospholipase A2 hydrolysis of micelles composed DSPE-PEG750 (0.150 mM). The chromatograms show the amount of stearic acid generated before (solid line) phospholipase A2 (A. piscivorus piscivorus) was added to the micelle suspension and the amount (dashed line) of DSPE-PEG750 after the lag-burst. The dotted line show pure stearic acid (0.4 mM). The percentage hydrolysis was calculated on basis of the integrated area of the stearic acid standard (115850 units) and the integrated area of the sample (45630 units).
The hydrolysis of micelles composed DSPE-PEG750 was followed by analysis of the amount of stearic acid generated. The catalytic reaction was initiated by adding 8.9 μL of a 42 μM PLA2 (150 nM) stock solution to 2.5 ml a thermostated lipid suspension of DSPE-PEG750 (0.150 mM) equilibrated at 45° C. for 600 seconds prior to addition of PLA2. The characteristic burst behavior of PLA2 towards the micelles is signaled by a sudden increase in the intrinsic fluorescence from PLA2 at 340 nm after excitation at 285 nm followed by a concomitant decrease in the 90° light scattering from the lipid suspension (Hønger et al., Biochemistry 35, 9003–9006). Samples for HPLC analysis of the amount of stearic acid generated were taken before adding PLA2 and 100 sec after the observed lag-time.

CCCCCCCCCCCCCCCCCCOC[C@H](COP(=O)([O-])OCC[N+](C)(C)C)OC [ET-18-OCH3]
hemolysis (in words) [1]: significant degree of hemolysis

CC(C)CCC[C@@H](C)[C@H]1CC[C@H]2[C@@H]3CC=C4C[C@@H](O)CC[C@]4(C)[C@H]3CC[C@]12C [cholesterol]
effect on extracellular PLA2 activity (in words) ([2]; ≈3 mol % incorporated into liposomes): activates
effect on extracellular PLA2 activity (in words) ([2]; ≈20 mol % incorporated into liposomes, data not shown): deactivated

CCCCCCCCCCCCCCCC(=O)O [fatty acid, palmitic acid]
rate of calcein release across target membrane (in words) [3]: increased rate of calcein release

di-octadecanoyl-sn-glycero-3-phosphoethanolamine-N-[methoxy(polyethylene glycol)-750 [DSPE-PEG750]
percent hydrolysis of DSPE-PEG750 ([4]; 0.150 mM DSPE-PEG750, 150 nM PLA2, 45° C.): 100%
lag time ([4]; 45° C., 150 nM PLA2): 10 s
